# Laboratory results taken from patent US12473304B2, “Heterocyclic PAD4 inhibitors” (BRISTOL-MYERS SQUIBB COMPANY, priority 2020, dated 2025).
# Target: human PAD4 (hPAD4) (Homo sapiens (Human), UniProt Q9UM07)
# Test: RFMS Human PAD4 Functional Assay 1
# Format: biochemical
# Details: RFMS assay 1; 5 nM hPAD4, 250 μM BAEE substrate, 50 μM calcium, 37° C.
# Outline: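 Citrullination product read by RapidFire triple-quad MRM against a modified-citrulline internal standard, after TCA stop and 30 min phenyl glyoxal step at 37 °C. Reaction: 250 μM BAEE, 5 nM human PAD4, 90 min at 37 °C, pH 7.5 HEPES buffer with 50 μM calcium and 5 μM TPEN, following 30 min compound–enzyme preincubation (max 50 μM).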
# Sequence of human PAD4 (hPAD4) (Q9UM07 whole entry): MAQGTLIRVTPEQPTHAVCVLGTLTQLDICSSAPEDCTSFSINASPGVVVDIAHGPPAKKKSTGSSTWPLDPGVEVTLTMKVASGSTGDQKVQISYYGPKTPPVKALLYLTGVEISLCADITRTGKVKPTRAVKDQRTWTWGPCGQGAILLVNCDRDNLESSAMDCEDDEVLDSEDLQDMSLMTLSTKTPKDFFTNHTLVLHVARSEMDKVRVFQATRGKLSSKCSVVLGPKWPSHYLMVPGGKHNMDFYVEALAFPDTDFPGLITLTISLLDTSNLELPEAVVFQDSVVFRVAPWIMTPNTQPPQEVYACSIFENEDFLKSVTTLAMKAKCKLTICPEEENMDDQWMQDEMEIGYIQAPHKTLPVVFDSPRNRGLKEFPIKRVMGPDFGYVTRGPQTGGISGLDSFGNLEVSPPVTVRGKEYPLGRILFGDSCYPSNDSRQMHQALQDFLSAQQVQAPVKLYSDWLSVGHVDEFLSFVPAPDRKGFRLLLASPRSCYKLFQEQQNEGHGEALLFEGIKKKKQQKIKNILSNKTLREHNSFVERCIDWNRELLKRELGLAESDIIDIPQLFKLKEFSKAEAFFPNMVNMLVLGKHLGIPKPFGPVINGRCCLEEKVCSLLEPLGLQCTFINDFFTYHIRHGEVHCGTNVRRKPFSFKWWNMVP
row,IC50,Compound
1,60 nM,"Cc1cc(-c2ccc3cc(-c4nn5cc(C(=O)N6CC7CCC6[C@@H]7N)ccc5c4C)n(CC4CC4)c3c2)c(F)cc1C(N)=O (stereo partly drawn) [Example 331, 4-(2-{6-[(7R)-7-Amino-2-azabicyclo[2.2.1]heptane-2-carbonyl]-3-methylpyrazolo[1,5-a]pyridin-2-yl}-1-(cyclopropylmethyl)-1H-indol-6-yl)-5-fluoro-2-methylbenzamide]"
2,20 nM,"Cc1c(-c2cc3ccc(-c4ccc5cn[nH]c5c4)cc3n2CC2CC2)nn2cc(C(=O)N3CC4CCC3[C@@H]4N)ccc12 (stereo partly drawn) [Example 332, (7R)-2-{2-[1-(Cyclopropylmethyl)-6-(1H-indazol-6-yl)-1H-indol-2-yl]-3-methylpyrazolo[1,5-a]pyridine-6-carbonyl}-2-azabicyclo[2.2.1]heptan-7-amine]"
3,20 nM,"Cc1c(-c2cc3ccc(-c4ccc5[nH]ncc5c4)cc3n2CC2CC2)nn2cc(C(=O)N3CC4CCC3[C@@H]4N)ccc12 (stereo partly drawn) [Example 333, (7R)-2-{2-[1-(Cyclopropylmethyl)-6-(1H-indazol-5-yl)-1H-indol-2-yl]-3-methylpyrazolo[1,5-a]pyridine-6-carbonyl}-2-azabicyclo[2.2.1]heptan-7-amine]"
4,120 nM,"Cc1cc(-c2ccc3cc(-c4nn5cc(C(=O)N6CC7CCC6[C@@H]7N)ccc5c4C)n(CC4CC4)c3c2)ccc1C(N)=O (stereo partly drawn) [Example 334, 4-(2-{6-[(7R)-7-Amino-2-azabicyclo[2.2.1]heptane-2-carbonyl]-3-methylpyrazolo[1,5-a]pyridin-2-yl}-1-(cyclopropylmethyl)-1H-indol-6-yl)-2-methylbenzamide]"
5,60 nM,"Cc1c(-c2cc3ccc(-c4ccc(C(N)=O)cc4C(F)(F)F)cc3n2CC2CC2)nn2cc(C(=O)N3CC4CCC3[C@@H]4N)ccc12 (stereo partly drawn) [Example 335, 4-(2-{6-[(7R)-7-Amino-2-azabicyclo[2.2.1]heptane-2-carbonyl]-3-methylpyrazolo[1,5-a]pyridin-2-yl}-1-(cyclopropylmethyl)-1H-indol-6-yl)-3-(trifluoromethyl)benzamide]"
6,20 nM,"Cc1c(-c2cc3ccc(-c4ccc(Cl)c5c(NS(C)(=O)=O)nn(C)c45)cc3n2CC2CC2)nn2cc(C(=O)N3CC4CCC3[C@@H]4N)ccc12 (stereo partly drawn) [Example 337, N-[7-(2-{6-[(7R)-7-Amino-2-azabicyclo[2.2.1]heptane-2-carbonyl]-3-methylpyrazolo[1,5-a]pyridin-2-yl}-1-(cyclopropylmethyl)-1H-indol-6-yl)-4-chloro-1-methyl-1H-indazol-3-yl]methanesulfonamide]"
7,50 nM,"Cc1c(-c2cc3ccc(-c4ccccc4N4CCNC4=O)cc3n2CC2CC2)nn2cc(C(=O)N3CC4CCC3[C@@H]4N)ccc12 (stereo partly drawn) [Example 338, 1-[2-(2-{6-[(7R)-7-Amino-2-azabicyclo[2.2.1]heptane-2-carbonyl]-3-methylpyrazolo[1,5-a]pyridin-2-yl}-1-(cyclopropylmethyl)-1H-indol-6-yl)phenyl]imidazolidin-2-one]"
8,930 nM,"Cc1c(-c2cc3ccc(-c4ccc(CNS(C)(=O)=O)cc4)cc3n2CC2CC2)nn2cc(C(=O)N3CCC[C@@H](N)C3)ccc12 [Example 342, N-{[4-(2-{6-[(3R)-3-Aminopiperidine-1-carbonyl]-3-methylpyrazolo[1,5-a]pyridin-2-yl}-1-(cyclopropylmethyl)-1H-indol-6-yl)phenyl]methyl}methanesulfonamide]"
9,50 nM,"CC(=O)NCc1cccc(-c2ccc3cc(-c4nn5cc(C(=O)N6CCC[C@@H](N)C6)ccc5c4C)n(CC4CC4)c3c2)c1 [Example 343, N-{[3-(2-{6-[(3R)-3-Aminopiperidine-1-carbonyl]-3-methylpyrazolo[1,5-a]pyridin-2-yl}-1-(cyclopropylmethyl)-1H-indol-6-yl)phenyl]methyl}acetamide]"
10,470 nM,"Cc1c(-c2cc3ccc(-c4cccc(CO)c4)cc3n2CC2CC2)nn2cc(C(=O)N3CCC[C@@H](N)C3)ccc12 [Example 344, [3-(2-{6-[(3R)-3-Aminopiperidine-1-carbonyl]-3-methylpyrazolo[1,5-a]pyridin-2-yl}-1-(cyclopropylmethyl)-1H-indol-6-yl)phenyl]methanol]"
11,790 nM,"Cc1c(-c2cc3ccc(-c4ccc5[nH]ccc5c4)cc3n2CC2CC2)nn2cc(C(=O)N3CCC[C@@H](N)C3)ccc12 [Example 345, (3R)-1-{2-[1′-(Cyclopropylmethyl)-1H,1′H-[5,6′-biindole]-2′-yl]-3-methylpyrazolo[1,5-a]pyridine-6-carbonyl}piperidin-3-amine]"
12,60 nM,"Cc1c(-c2ccc3cc(-c4nn5cc(C(=O)N6CCC[C@@H](N)C6)ccc5c4C)n(CC4CC4)c3c2)cc(F)c2[nH]c(=O)ccc12 [Example 346, 6-(2-{6-[(3R)-3-Aminopiperidine-1-carbonyl]-3-methylpyrazolo[1,5-a]pyridin-2-yl}-1-(cyclopropylmethyl)-1H-indol-6-yl)-8-fluoro-5-methyl-1,2-dihydroquinolin-2-one]"
13,290 nM,"Cc1c(-c2cc3ccc(-c4ccc(NS(C)(=O)=O)cc4)cc3n2CC2CC2)nn2cc(C(=O)N3CCC[C@@H](N)C3)ccc12 [Example 347, N-[4-(2-{6-[(3R)-3-Aminopiperidine-1-carbonyl]-3-methylpyrazolo[1,5-a]pyridin-2-yl}-1-(cyclopropylmethyl)-1H-indol-6-yl)phenyl]methanesulfonamide]"
14,140 nM,"CC(=O)Nc1ccc(-c2ccc3cc(-c4nn5cc(C(=O)N6CCC[C@@H](N)C6)ccc5c4C)n(CC4CC4)c3c2)cn1 [Example 348, N-[5-(2-{6-[(3R)-3-Aminopiperidine-1-carbonyl]-3-methylpyrazolo[1,5-a]pyridin-2-yl}-1-(cyclopropylmethyl)-1H-indol-6-yl)pyridin-2-yl]acetamide]"
15,100 nM,"Cc1c(-c2cc3ccc(-c4ccn5c(C)nnc5c4)cc3n2CC2CC2)nn2cc(C(=O)N3CCC[C@@H](N)C3)ccc12 [Example 349, (R)-(3-Aminopiperidin-1-yl)(2-(1-(cyclopropylmethyl)-6-(3-methyl-[1,2,4]triazolo[4,3-a]pyridin-7-yl)-1H-indol-2-yl)-3-methylpyrazolo[1,5-a]pyridin-6-yl)methanone]"
16,30 nM,"Cc1c(-c2cc3ccc(N4CCOCC4)cc3n2CC2CC2)nn2cc(C(=O)N3CC4CCC3[C@@H]4N)ccc12 (stereo partly drawn) [Example 350, (7R)-2-{2-[1-(Cyclopropylmethyl)-6-(morpholin-4-yl)-1H-indol-2-yl]-3-methylpyrazolo[1,5-a]pyridine-6-carbonyl}-2-azabicyclo[2.2.1]heptan-7-amine]"
17,100 nM,"Cc1c(-c2cc3ccc(N4CCC(S(C)(=O)=O)CC4)cc3n2CC2CC2)nn2cc(C(=O)N3CC4CCC3[C@@H]4N)ccc12 (stereo partly drawn) [Example 351, (7R)-2-{2-[1-(Cyclopropylmethyl)-6-(4-methanesulfonylpiperidin-1-yl)-1H-indol-2-yl]-3-methylpyrazolo[1,5-a]pyridine-6-carbonyl}-2-azabicyclo[2.2.1]heptan-7-amine]"
18,810 nM,"COC(=O)N(C)C1CCN(c2ccc3cc(-c4nn5cc(C(=O)N6C[C@H](N)C[C@@H](F)C6)ccc5c4C)n(CC4CC4)c3c2)CC1 [Example 352, Methyl N-[1-(2-{6-[(3R,5R)-3-amino-5-fluoropiperidine-1-carbonyl]-3-methylpyrazolo[1,5-a]pyridin-2-yl}-1-(cyclopropylmethyl)-1H-indol-6-yl)piperidin-4-yl]-N-methylcarbamate]"
19,610 nM,"CC(=O)N(C)C1CCN(c2ccc3cc(-c4nn5cc(C(=O)N6C[C@H](N)C[C@@H](F)C6)ccc5c4C)n(CC4CC4)c3c2)CC1 [Example 353, N-[1-(2-{6-[(3R,5R)-3-Amino-5-fluoropiperidine-1-carbonyl]-3-methylpyrazolo[1,5-a]pyridin-2-yl}-1-(cyclopropylmethyl)-1H-indol-6-yl)piperidin-4-yl]-N-methylacetamide]"
20,150 nM,"Cc1c(-c2cc3ccc(N4CCC(N(C)S(C)(=O)=O)CC4)cc3n2CC2CC2)nn2cc(C(=O)N3C[C@H](N)C[C@@H](F)C3)ccc12 [Example 354, N-[1-(2-{6-[(3R,5R)-3-Amino-5-fluoropiperidine-1-carbonyl]-3-methylpyrazolo[1,5-a]pyridin-2-yl}-1-(cyclopropylmethyl)-1H-indol-6-yl)piperidin-4-yl]-N-methylmethanesulfonamide]"
21,20 nM,"Cc1c(-c2cc3ccc(N4CCC(C(=O)N5CCCC5)CC4)cc3n2CC2CC2)nn2cc(C(=O)N3C[C@H](N)C[C@@H](F)C3)ccc12 [Example 355, (3R,5R)-1-{2-[1-(Cyclopropylmethyl)-6-[4-(pyrrolidine-1-carbonyl)piperidin-1-yl]-1H-indol-2-yl]-3-methylpyrazolo[1,5-a]pyridine-6-carbonyl}-5-fluoropiperidin-3-amine]"
22,2780 nM,"Cc1c(-c2cc3ccc(N4CCC(N5CCCC5=O)CC4)cc3n2CC2CC2)nn2cc(C(=O)N3C[C@H](N)C[C@@H](F)C3)ccc12 [Example 356, 1-[1-(2-{6-[(3R,5R)-3-Amino-5-fluoropiperidine-1-carbonyl]-3-methylpyrazolo[1,5-a]pyridin-2-yl}-1-(cyclopropylmethyl)-1H-indol-6-yl)piperidin-4-yl]pyrrolidin-2-one]"
23,50 nM,"Cc1c(-c2cc3ccc(N4CCC(N5CCOC5=O)CC4)cc3n2CC2CC2)nn2cc(C(=O)N3C[C@H](N)C[C@@H](F)C3)ccc12 [Example 357, 3-[1-(2-{6-[(3R,5R)-3-Amino-5-fluoropiperidine-1-carbonyl]-3-methylpyrazolo[1,5-a]pyridin-2-yl}-1-(cyclopropylmethyl)-1H-indol-6-yl)piperidin-4-yl]-l,3-oxazolidin-2-one]"
24,420 nM,"COC(=O)N(C)C1CCN(c2ccc3cc(-c4nn5cc(C(=O)N6CCC[C@@H](N)C6)ccc5c4C)n(CC4CC4)c3c2)CC1 [Example 358, Methyl N-[1-(2-{6-[(3R)-3-aminopiperidine-1-carbonyl]-3-methylpyrazolo[1,5-a]pyridin-2-yl}-1-(cyclopropylmethyl)-1H-indol-6-yl)piperidin-4-yl]-N-methylcarbamate]"
